The text below walks through data of US9546158B2, “2,5-substituted pyrimidines” (Grünenthal GmbH, priority 2014, dated 2017).

SMILES strings stand for the structures.

In general, inhibition refers to the relative decrease from the control value, in per cent.

In this assay the target is T1, human PDE4B1 (Homo sapiens, UniProt Q07343).
T1 construct: host or cells: Sf9 cells
T1 sequence (Q07343 whole entry): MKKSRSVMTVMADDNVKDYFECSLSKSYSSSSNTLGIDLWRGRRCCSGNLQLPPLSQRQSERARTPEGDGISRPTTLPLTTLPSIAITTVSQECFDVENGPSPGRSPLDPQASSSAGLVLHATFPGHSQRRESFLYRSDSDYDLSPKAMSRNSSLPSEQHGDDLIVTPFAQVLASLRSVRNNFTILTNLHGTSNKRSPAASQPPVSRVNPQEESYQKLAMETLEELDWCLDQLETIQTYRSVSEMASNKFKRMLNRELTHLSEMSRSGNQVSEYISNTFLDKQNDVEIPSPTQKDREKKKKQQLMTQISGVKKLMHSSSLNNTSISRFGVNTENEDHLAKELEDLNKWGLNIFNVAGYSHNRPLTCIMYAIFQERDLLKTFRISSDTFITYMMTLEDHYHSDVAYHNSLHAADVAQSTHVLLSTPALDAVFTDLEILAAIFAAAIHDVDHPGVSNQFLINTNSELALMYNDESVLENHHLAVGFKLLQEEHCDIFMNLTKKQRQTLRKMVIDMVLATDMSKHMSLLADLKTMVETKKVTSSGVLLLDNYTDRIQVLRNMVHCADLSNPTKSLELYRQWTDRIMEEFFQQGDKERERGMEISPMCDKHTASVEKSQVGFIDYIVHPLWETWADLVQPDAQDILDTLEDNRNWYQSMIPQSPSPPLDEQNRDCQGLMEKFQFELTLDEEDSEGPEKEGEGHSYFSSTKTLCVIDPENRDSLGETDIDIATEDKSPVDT
In words: cAMP HTRF assay to determine the activity of hPDE4B1. Format: biochemical. To be noted: test substrate concentration of 1 μM, read-out: Inhibition of PDE4B, Inhibition in %. The procedure:
cAMP HTRF® Assay to Determine the Activity of hPDE4B1
The inhibiting effect of the compounds on the enzyme activity of human PDE4B1 was measured by the quantification of 5′-adenosine monophosphate (5′-AMP), which is formed from 3′,5′-cyclic adenosine monophosphate (cAMP). Human recombinant enzyme, expressed in Sf9 cells, and the HTRF (homogeneous time-resolved fluorescence) detection method were used in the assay.
The test compound or water (control) was mixed with the human recombinant PDE4B1 enzyme (4.8 U) in a buffer consisting of 44.4 mM tris-HCl, 5.28 mM MgCl2, 2.64 mM DTT and 0.044% Tween 20 (pH 7.8). After adding the cAMP enzyme substrate (final concentration 40 nM), the mixture was incubated for 30 minutes at room temperature. Then a fluorescence acceptor (Dye2 marked with cAMP), a fluorescence donor (anti-cAMP antibody marked with a europium cryptate) and the non-specific phosphodiesterase inhibitor IBMX (3-isobutyl-1-methylxanthine; final concentration 1 mM) were added. After 60 minutes the fluorescence transfer, which correlates with the amount of remaining cAMP, was measured with a microplate reader (Rubystar, BMG) at λex=337 nm, λem=620 nm and λem=665 nm. The enzyme activity was calculated from the quotient formed from the measured signal at 665 nm and that at 620 nm. The result was expressed as the percentage inhibition of enzyme activity of the control (without PDE4 inhibitor). The enzyme was omitted for measurement of the basal control. IC50 values (IC50=concentration causing a half-maximal inhibition of control specific activity) were derived from dose response measurements with eight different concentrations (n=2; N=1-3).
Literature: N. Saldou et al., Comparison of recombinant human PDE4 isoforms: interaction with substrate and inhibitors, Cell. Signal. Vol. 10, No. 6, 427-440, 1998
For `Cc1nn(-c2ncc(-c3ccccc3F)cn2)c2cc(C(=O)N3CCOCC3)ccc12` [Compound No. 1, (1-(5-(2-Fluorophenyl)pyrimidin-2-yl)-3-methyl-1H-indazol-6-yl)(morpholino)methanone], the inhibition at 1 µM came out at 99%.
Consider `O=C(c1ccc2c(C(F)(F)F)nn(-c3ncc(-c4ccccc4F)cn3)c2c1)N1CCOCC1` [Compound No. 2, (1-(5-(2-Fluorophenyl)pyrimidin-2-yl)-3-(trifluoromethyl)-1H-indazol-6-yl)(morpholino)methanone], for which the inhibition at 1 µM came out at 102%.
Take `NC(=O)c1nn(-c2ncc(-c3ccccc3F)cn2)c2cc(C(=O)N3CCOCC3)ccc12` [Compound No. 3, 1-(5-(2-Fluorophenyl)pyrimidin-2-yl)-6-(morpholine-4-carbonyl)-1H-indazole-3-carboxamide]: the inhibition at 1 µM amounted to 83%.
The figure for `O=C(c1ccc2c(C3CC3)nn(-c3ncc(-c4ccccc4F)cn3)c2c1)N1CCOCC1` [Compound No. 4, (3-Cyclopropyl-1-(5-(2-fluorophenyl)pyrimidin-2-yl)-1H-indazol-6-yl)(morpholino)methanone] is 106%; for `CS(=O)(=O)c1nn(-c2ncc(-c3ccccc3F)cn2)c2cc(C(=O)N3CCOCC3)ccc12` [Compound No. 5, (1-(5-(2-Fluorophenyl)pyrimidin-2-yl)-3-(methylsulfonyl)-1H-indazol-6-yl)(morpholino)methanone] it is 96%; for `C[S+]([O-])c1nn(-c2ncc(-c3ccccc3F)cn2)c2cc(C(=O)N3CCOCC3)ccc12` (centres unmarked) [Compound No. 6, (1-(5-(2-Fluorophenyl)pyrimidin-2-yl)-3-(methylsulfinyl)-1H-indazol-6-yl)(morpholino)methanone] it is 97%.
The figure for `C[S+]([O-])c1nn(-c2ncc(-c3ccccc3F)cn2)c2cc(C(=O)N3CCNCC3)ccc12` (centres unmarked) [Compound No. 8, (1-(5-(2-Fluorophenyl)pyrimidin-2-yl)-3-(methylsulfinyl)-1H-indazol-6-yl)(piperazin-1-yl)methanone] is 64%.
`C[S+]([O-])c1nn(-c2ncc(-c3ccccc3)cn2)c2cc(C(=O)N3CCNCC3)ccc12` (centres unmarked) [Compound No. 9, (3-(Methylsulfinyl)-1-(5-phenylpyrimidin-2-yl)-1H-indazol-6-yl)(piperazin-1-yl)methanone]: the inhibition at 1 µM worked out at 46%.
The figure for `C[S+]([O-])c1nn(-c2ncc(-c3ccccc3)cn2)c2cc(C(=O)N3CCOCC3)ccc12` (centres unmarked) [Compound No. 11, (3-(Methylsulfinyl)-1-(5-phenylpyrimidin-2-yl)-1H-indazol-6-yl)(morpholino)methanone] is 115%; for `CS(=O)(=O)c1nn(-c2ncc(-c3ccccc3)cn2)c2cc(C(=O)N3CCOCC3)ccc12` [Compound No. 12, (3-(Methylsulfonyl)-1-(5-phenylpyrimidin-2-yl)-1H-indazol-6-yl)(morpholino)methanone] it is 62%; for `C[S+]([O-])c1nn(-c2ncc(-c3ccccc3F)cn2)c2cc(C(=O)N3CC[C@@H](N)C3)ccc12` (stereo partly drawn) [Compound No. 13, ((R)-3-Aminopyrrolidin-1-yl)(1-(5-(2-fluorophenyl)pyrimidin-2-yl)-3-(methylsulfinyl)-1H-indazol-6-yl)methanone] it is 108%.
Take `Cc1cccc(-c2cnc(-n3nc(C(C)O)c4ccc(C(=O)N5CCOCC5)cc43)nc2)c1` (centres unmarked) [Compound No. 18, (3-(1-Hydroxyethyl)-1-(5-(m-tolyl)pyrimidin-2-yl)-1H-indazol-6-yl)(morpholino)-methanone]: the inhibition at 1 µM worked out at 96%.
For `CC(O)c1nn(-c2ncc(-c3ccccc3)cn2)c2cc(C(=O)N3CCOCC3)ccc12` (centres unmarked) [Compound No. 19, (3-(1-Hydroxyethyl)-1-(5-phenylpyrimidin-2-yl)-1H-indazol-6-yl)(morpholino)methanone] the value was 112%.
For `CC(O)c1nn(-c2ncc(-c3ccccc3F)cn2)c2cc(C(=O)N3CCOCC3)ccc12` (centres unmarked) [Compound No. 20, (1-(5-(2-Fluorophenyl)pyrimidin-2-yl)-3-(1-hydroxyethyl)-1H-indazol-6-yl)(morpholino)methanone] the value was 102%.
For `COc1ccc(F)c(-c2cnc(-n3nc(C(C)O)c4ccc(C(=O)N5CCOCC5)cc43)nc2)c1` (centres unmarked) [Compound No. 21, (1-(5-(2-Fluoro-5-methoxyphenyl)pyrimidin-2-yl)-3-(1-hydroxyethyl)-1H-indazol-6-yl)(morpholino)methanone] the value was 112%; for `CC(O)c1nn(-c2ncc(-c3cc(C#N)ccc3F)cn2)c2cc(C(=O)N3CCOCC3)ccc12` (centres unmarked) [Compound No. 22, 4-Fluoro-3-(2-(3-(1-hydroxyethyl)-6-(morpholine-4-carbonyl)-1H-indazol-1-yl)pyrimidin-5-yl)benzonitrile], 112%.
On to `Cc1cccc(-c2cnc(-n3nc([S+](C)[O-])c4ccc(C(=O)N5CCOCC5)cc43)nc2)c1` (centres unmarked) [Compound No. 23, (3-(Methylsulfinyl)-1-(5-(m-tolyl)pyrimidin-2-yl)-1H-indazol-6-yl)(morpholino)methanone], for which the inhibition at 1 µM is 101%.
With `COc1ccc(F)c(-c2cnc(-n3nc([S+](C)[O-])c4ccc(C(=O)N5CCOCC5)cc43)nc2)c1` (centres unmarked) [Compound No. 24, (1-(5-(2-Fluoro-5-methoxyphenyl)pyrimidin-2-yl)-3-(methylsulfinyl)-1H-indazol-6-yl)(morpholino)methanone], the inhibition at 1 µM is 100%.
Turning to `C[S+]([O-])c1nn(-c2ncc(-c3cc(C#N)ccc3F)cn2)c2cc(C(=O)N3CCOCC3)ccc12` (centres unmarked) [Compound No. 25, 4-Fluoro-3-(2-(3-(methylsulfinyl)-6-(morpholine-4-carbonyl)-1H-indazol-1-yl)pyrimidin-5-yl)benzonitrile], the inhibition at 1 µM was 85%.
For `Cc1cccc(-c2cnc(-n3nc(S(C)(=O)=O)c4ccc(C(=O)N5CCOCC5)cc43)nc2)c1` [Compound No. 26, (3-(Methylsulfonyl)-1-(5-(m-tolyl)pyrimidin-2-yl)-1H-indazol-6-yl)(morpholino)methanone] the value was 91%; for `COc1ccc(F)c(-c2cnc(-n3nc(S(C)(=O)=O)c4ccc(C(=O)N5CCOCC5)cc43)nc2)c1` [Compound No. 27, (1-(5-(2-Fluoro-5-methoxyphenyl)pyrimidin-2-yl)-3-(methylsulfonyl)-1H-indazol-6-yl)(morpholino)methanone], 85%.
Turning to `CS(=O)(=O)c1nn(-c2ncc(-c3cc(C#N)ccc3F)cn2)c2cc(C(=O)N3CCOCC3)ccc12` [Compound No. 28, 4-Fluoro-3-(2-(3-(methylsulfonyl)-6-(morpholine-4-carbonyl)-1H-indazol-1-yl)pyrimidin-5-yl)benzonitrile], the inhibition at 1 µM was 86%.
Regarding `O=C(c1cc2c(cn1)c(C1CC1)nn2-c1ncc(-c2ccccc2F)cn1)N1CCC1` [compound 35, Azetidin-1-yl(3-cyclopropyl-1-(5-(2-fluorophenyl)pyrimidin-2-yl)-1H-pyrazolo[4,3-c]pyridin-6-yl)methanone], the inhibition at 1 µM amounted to 59%.
For `O=C(NC1CC1)c1cc2c(cn1)c(C1CC1)nn2-c1ncc(-c2ccccc2F)cn1` [compound 36, N,3-Dicyclopropyl-1-(5-(2-fluorophenyl)pyrimidin-2-yl)-1H-pyrazolo[4,3-c]pyridine-6-carboxamide] the value was 81%; for `CCN(C)C(=O)c1cc2c(cn1)c(C1CC1)nn2-c1ncc(-c2ccccc2F)cn1` [compound 37, 3-Cyclopropyl-N-ethyl-1-(5-(2-fluorophenyl)pyrimidin-2-yl)-N-methyl-1H-pyrazolo[4,3-c]pyridine-6-carboxamide], 73%.
As to `O=C(c1cc2c(cn1)c(C1CC1)nn2-c1ncc(-c2ccccc2F)cn1)N1CCCC1` [compound 38, (3-Cyclopropyl-1-(5-(2-fluorophenyl)pyrimidin-2-yl)-1H-pyrazolo[4,3-c]pyridin-6-yl)(pyrrolidin-1-yl)methanone], the inhibition at 1 µM turned out to be 85%.
For the molecule `CCN(CC)C(=O)c1cc2c(cn1)c(C1CC1)nn2-c1ncc(-c2ccccc2F)cn1` [compound 39, 3-Cyclopropyl-N,N-diethyl-1-(5-(2-fluorophenyl)pyrimidin-2-yl)-1H-pyrazolo[4,3-c]pyridine-6-carboxamide], the inhibition at 1 µM is 67%.
For `CN(CCO)C(=O)c1cc2c(cn1)c(C1CC1)nn2-c1ncc(-c2ccccc2F)cn1` [compound 40, 3-Cyclopropyl-1-(5-(2-fluorophenyl)pyrimidin-2-yl)-N-(2-hydroxyethyl)-N-methyl-1H-pyrazolo[4,3-c]pyridine-6-carboxamide] the value was 40%.
For `COCCNC(=O)c1cc2c(cn1)c(C1CC1)nn2-c1ncc(-c2ccccc2F)cn1` [compound 41, 3-Cyclopropyl-1-(5-(2-fluorophenyl)pyrimidin-2-yl)-N-(2-methoxyethyl)-1H-pyrazolo[4,3-c]pyridine-6-carboxamide] the value was 69%.
